Counter-ions that a name gives are not always drawn.
Key:
Assay in all cases: PI3K enzyme inhibitory activity in the cell free assay (ADP-Glo Kinase Assay)
Assay type in all cases: biochemical
PI3Kβ = target: T1, PI3Kβ (Homo sapiens, UniProt P42338); details: human recombinant PI3Kβ, ATP 100 μM; read-out: PI3K beta inhibition
T1 construct: purchased Millipore Ltd (Billerica, Mass.)

PI3Kδ = target: T2, PI3Kδ (Homo sapiens, UniProt O00329); details: human recombinant PI3Kδ, ATP 80 μM; read-out: PI3K delta inhibition
T2 construct: purchased Millipore Ltd (Billerica, Mass.)
T2 sequence (O00329 1-1044): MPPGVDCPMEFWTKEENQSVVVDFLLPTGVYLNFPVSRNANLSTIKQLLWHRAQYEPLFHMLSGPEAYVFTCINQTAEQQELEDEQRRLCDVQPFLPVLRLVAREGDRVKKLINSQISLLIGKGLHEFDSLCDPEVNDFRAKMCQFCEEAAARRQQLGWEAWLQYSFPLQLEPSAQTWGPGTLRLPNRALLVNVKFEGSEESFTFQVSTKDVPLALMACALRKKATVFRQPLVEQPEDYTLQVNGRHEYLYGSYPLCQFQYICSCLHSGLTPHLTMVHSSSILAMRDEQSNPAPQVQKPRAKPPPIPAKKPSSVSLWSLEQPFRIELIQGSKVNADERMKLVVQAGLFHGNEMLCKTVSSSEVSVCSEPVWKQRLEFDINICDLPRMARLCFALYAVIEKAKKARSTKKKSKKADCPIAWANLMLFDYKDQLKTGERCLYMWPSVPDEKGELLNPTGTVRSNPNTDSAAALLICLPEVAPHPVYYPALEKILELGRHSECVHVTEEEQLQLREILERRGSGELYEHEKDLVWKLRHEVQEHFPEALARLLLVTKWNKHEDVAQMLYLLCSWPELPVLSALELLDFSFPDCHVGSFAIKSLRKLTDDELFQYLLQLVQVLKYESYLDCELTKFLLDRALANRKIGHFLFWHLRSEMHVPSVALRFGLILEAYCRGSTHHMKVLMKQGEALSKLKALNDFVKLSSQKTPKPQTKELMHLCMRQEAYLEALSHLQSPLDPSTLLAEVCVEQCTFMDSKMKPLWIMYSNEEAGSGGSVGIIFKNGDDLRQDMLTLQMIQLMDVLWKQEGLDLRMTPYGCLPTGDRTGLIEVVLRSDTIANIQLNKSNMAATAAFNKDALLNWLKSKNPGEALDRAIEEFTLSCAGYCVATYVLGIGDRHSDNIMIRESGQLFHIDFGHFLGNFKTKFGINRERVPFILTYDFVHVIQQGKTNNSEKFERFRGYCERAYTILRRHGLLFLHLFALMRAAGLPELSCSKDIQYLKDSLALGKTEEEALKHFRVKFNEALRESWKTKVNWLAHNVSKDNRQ

PI3Kγ = target: T3, PI3Kγ (Homo sapiens, UniProt P48736); details: human recombinant PI3Kγ, ATP 30 μM; read-out: PI3K gamma inhibition
T3 construct: purchased Millipore Ltd (Billerica, Mass.)
T3 sequence (P48736 whole entry): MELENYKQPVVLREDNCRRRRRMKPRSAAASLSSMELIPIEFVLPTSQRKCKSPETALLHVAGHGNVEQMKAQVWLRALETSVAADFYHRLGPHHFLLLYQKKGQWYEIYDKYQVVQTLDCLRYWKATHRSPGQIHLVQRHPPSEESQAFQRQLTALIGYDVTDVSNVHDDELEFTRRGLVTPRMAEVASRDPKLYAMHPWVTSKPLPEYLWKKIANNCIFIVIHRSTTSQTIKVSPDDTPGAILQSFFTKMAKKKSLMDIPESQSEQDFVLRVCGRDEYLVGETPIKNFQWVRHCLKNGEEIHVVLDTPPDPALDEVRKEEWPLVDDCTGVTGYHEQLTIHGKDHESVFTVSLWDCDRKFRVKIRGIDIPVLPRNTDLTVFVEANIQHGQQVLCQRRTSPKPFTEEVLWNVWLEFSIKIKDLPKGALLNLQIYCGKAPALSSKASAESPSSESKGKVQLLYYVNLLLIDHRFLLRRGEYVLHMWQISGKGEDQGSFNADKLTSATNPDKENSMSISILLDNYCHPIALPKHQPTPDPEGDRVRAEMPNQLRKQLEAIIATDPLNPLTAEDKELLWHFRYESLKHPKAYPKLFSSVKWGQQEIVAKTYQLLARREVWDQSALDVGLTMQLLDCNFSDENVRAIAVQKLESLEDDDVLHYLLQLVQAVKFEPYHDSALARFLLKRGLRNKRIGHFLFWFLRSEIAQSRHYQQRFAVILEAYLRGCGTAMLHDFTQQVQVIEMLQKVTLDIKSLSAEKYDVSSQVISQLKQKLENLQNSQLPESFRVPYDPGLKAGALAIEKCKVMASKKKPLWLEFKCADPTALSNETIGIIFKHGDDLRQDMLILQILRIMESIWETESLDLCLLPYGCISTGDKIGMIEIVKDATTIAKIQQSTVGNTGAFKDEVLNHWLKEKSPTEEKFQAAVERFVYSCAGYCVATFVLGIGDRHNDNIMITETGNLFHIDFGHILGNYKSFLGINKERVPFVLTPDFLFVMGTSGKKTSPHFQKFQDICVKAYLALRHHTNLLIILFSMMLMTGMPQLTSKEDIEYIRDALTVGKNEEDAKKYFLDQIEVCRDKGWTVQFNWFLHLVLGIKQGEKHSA

T1 sequence (P42338 whole entry): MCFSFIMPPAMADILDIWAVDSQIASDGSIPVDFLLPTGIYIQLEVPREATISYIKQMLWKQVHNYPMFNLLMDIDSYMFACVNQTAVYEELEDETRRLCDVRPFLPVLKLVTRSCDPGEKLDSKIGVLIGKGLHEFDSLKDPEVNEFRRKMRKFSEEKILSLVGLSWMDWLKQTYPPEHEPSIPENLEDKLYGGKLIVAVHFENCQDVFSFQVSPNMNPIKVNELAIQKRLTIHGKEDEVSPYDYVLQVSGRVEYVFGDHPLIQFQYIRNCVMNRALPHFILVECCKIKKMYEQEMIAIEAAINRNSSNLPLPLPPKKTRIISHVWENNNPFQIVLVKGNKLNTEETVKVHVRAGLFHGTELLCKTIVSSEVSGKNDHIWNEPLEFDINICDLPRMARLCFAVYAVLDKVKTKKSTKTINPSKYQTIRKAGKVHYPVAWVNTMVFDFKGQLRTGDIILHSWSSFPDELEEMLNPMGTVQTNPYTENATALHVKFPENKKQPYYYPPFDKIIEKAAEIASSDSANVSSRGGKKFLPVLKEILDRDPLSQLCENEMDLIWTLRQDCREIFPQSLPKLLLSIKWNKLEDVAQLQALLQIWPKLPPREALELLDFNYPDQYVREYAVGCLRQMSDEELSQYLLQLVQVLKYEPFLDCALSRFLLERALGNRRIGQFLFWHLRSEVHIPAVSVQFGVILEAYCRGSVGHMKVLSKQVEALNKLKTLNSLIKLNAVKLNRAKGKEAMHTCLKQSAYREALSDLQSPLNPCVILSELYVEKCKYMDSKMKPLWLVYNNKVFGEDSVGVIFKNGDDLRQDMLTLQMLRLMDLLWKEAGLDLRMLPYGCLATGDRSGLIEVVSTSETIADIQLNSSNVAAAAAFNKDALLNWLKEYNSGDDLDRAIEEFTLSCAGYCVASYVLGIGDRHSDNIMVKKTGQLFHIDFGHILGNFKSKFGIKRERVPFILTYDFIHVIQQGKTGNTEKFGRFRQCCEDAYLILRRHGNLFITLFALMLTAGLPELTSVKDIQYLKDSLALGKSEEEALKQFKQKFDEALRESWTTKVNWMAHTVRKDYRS

| Compound | IC50 (PI3Kβ) [nM] | IC50 (PI3Kδ) [nM] | IC50 (PI3Kγ) [nM] |
| --- | --- | --- | --- |
| 4-(1-acetyl-1,2,3,6-tetrahydropyridin-4-yl)-3-(1-(4-amino-3-(3-fluoro-5-hydroxyphenyl)-1H-pyrazolo[3,4-d]pyrimidin-1-yl)ethyl)-1H-isochromen-1-one single enantiomer [Example 166b] | 10 to 1000 |  |  |
| CC(c1oc(=O)c2ccccc2c1-c1cccc(CCCN(C)C)c1)n1nc(-c2cc(O)cc(F)c2)c2c(N)ncnc21 (single isomer, unassigned) [Example 137a, 3-(1-(4-amino-3-(3-fluoro-5-hydroxyphenyl)-1H-pyrazolo[3,4-d]pyrimidin-1-yl)ethyl)-4-(3-(3-(dimethylamino)propyl)phenyl)-1H-isochromen-1-one single enantiomers] | > 1000 | 10 to 1000 |  |
| O=c1oc(CNc2ncnc3[nH]cnc23)c(-c2cccc(F)c2)c2ccccc12 [Example 21, 3-((9H-Purin-6-ylamino)methyl)-4-(3-fluorophenyl)-1H-isochromen-1-one] |  | 10 to 1000 | 10 to 1000 |
| CC(Nc1ncnc2[nH]cnc12)c1oc(=O)c2ccccc2c1-c1ccc(OCCN2CCOCC2)cc1 (stereo not drawn) [Example 26, 3-(1-(9H-Purin-6-ylamino)ethyl)-4-(4-(2-morpholinoethoxy)phenyl)-1H-isochromen-1-one formate] |  | 10 to 1000 | 10 to 1000 |
| Cc1cccc(-c2c(CNc3ncnc4[nH]cnc34)oc(=O)c3ccccc23)c1 [Example 31, 3-((9H-Purin-6-ylamino)methyl)-4-m-tolyl-1H-isochromen-1-one] |  | 10 to 1000 | 10 to 1000 |
| CC(Nc1ncnc2[nH]cnc12)c1oc(=O)c2ccccc2c1-c1cccc(F)c1 (stereo not drawn) [Example 32, 3-(1-(9H-purin-6-ylamino)ethyl)-4-(3-fluorophenyl)-1H-isochromen-1-one] |  | < 10 | 10 to 1000 |
| Cc1cccc(-c2c(C(C)Nc3ncnc4[nH]cnc34)oc(=O)c3ccccc23)c1 (stereo not drawn) [Example 33, 3-(1-(9H-Purin-6-ylamino)ethyl)-4-m-tolyl-1H-isochromen-1-one] |  | < 10 | 10 to 1000 |
| Cc1n[nH]c2ccc(-c3nn(Cc4oc(=O)c5ccccc5c4-c4ccccc4)c4ncnc(N)c34)cc12 [Example 37, 3-((4-Amino-3-(3-methyl-1H-indazol-5-yl)-1H-pyrazolo[3,4-d]pyrimidin-1-yl)methyl)-4-phenyl-1H-isochromen-1-one] |  | 10 to 1000 | > 1000 |
| CC(Nc1ncnc2[nH]ncc12)c1oc(=O)c2ccccc2c1-c1ccccc1 (stereo not drawn) [Example 43, 3-(1-(1H-pyrazolo[3,4-d]pyrimidin-4-ylamino)ethyl)-4-phenyl-1H-isochromen-1-one] |  | 10 to 1000 | > 1000 |
| CC(c1oc(=O)c2ccccc2c1-c1ccc(CN2CCOCC2)cc1)n1nc(-c2cc(O)cc(F)c2)c2c(N)ncnc21 (stereo not drawn) [Example 48, 3-(1-(4-amino-3-(3-fluoro-5-hydroxyphenyl)-1H-pyrazolo[3,4-d]pyrimidin-1-yl)ethyl)-4-(4-(morpholinomethyl)phenyl)-1H-isochromen-1-one hydrochloride] |  | < 10 | 10 to 1000 |
| CC(c1oc(=O)c2ccccc2c1-c1ccccc1)n1nc(-c2ccnnc2)c2c(N)ncnc21 (stereo not drawn) [Example 53, 3-(1-(4-amino-3-(pyridazin-4-yl)-1H-pyrazolo[3,4-d]pyrimidin-1-yl)ethyl)-4-phenyl-1H-isochromen-1-one] |  | 10 to 1000 | > 1000 |
| CC(c1oc(=O)c2ccccc2c1-c1ccccc1)n1nc(-c2ccncc2)c2c(N)ncnc21 (stereo not drawn) [Example 54, 3-(1-(4-amino-3-(pyridin-4-yl)-1H-pyrazolo[3,4-d]pyrimidin-1-yl)ethyl)-4-phenyl-1H-isochromen-1-one] |  | 10 to 1000 | 10 to 1000 |
| COc1ncc(-c2nn(C(C)c3oc(=O)c4ccccc4c3-c3ccccc3)c3ncnc(N)c23)cn1 (stereo not drawn) [Example 55, 3-(1-(4-amino-3-(2-methoxypyrimidin-5-yl)-1H-pyrazolo[3,4-d]pyrimidin-1-yl)ethyl)-4-phenyl-1H-isochromen-1-one] |  | < 10 | 10 to 1000 |
| COc1cncc(-c2nn(C(C)c3oc(=O)c4ccccc4c3-c3ccccc3)c3ncnc(N)c23)c1 (stereo not drawn) [Example 57, 3-(1-(4-amino-3-(5-methoxypyridin-3-yl)-1H-pyrazolo[3,4-d]pyrimidin-1-yl)ethyl)-4-phenyl-1H-isochromen-1-one] |  | 10 to 1000 | 10 to 1000 |
| CC(Nc1ncnc2ccsc12)c1oc(=O)c2ccccc2c1-c1ccc(CN2CCOCC2)s1 (stereo not drawn) [Example 81, 4-(5-(morpholinomethyl)thiophen-2-yl)-3-(1-(thieno[3,2-d]pyrimidin-4-ylamino)ethyl)-1H-isochromen-1-one hydrochloride] |  | 10 to 1000 | > 1000 |
| CC(Nc1ncnn2cccc12)c1oc(=O)c2ccccc2c1-c1ccccc1 (stereo not drawn) [Example 83, 4-phenyl-3-(1-(pyrrolo[2,1-f][1,2,4]triazin-4-ylamino)ethyl)-1H-isochromen-1-one] |  | 10 to 1000 | > 1000 |
| CC(Nc1ncnc2cccnc12)c1oc(=O)c2ccccc2c1-c1ccccc1 (stereo not drawn) [Example 84, 4-phenyl-3-(1-(pyrido[3,2-d]pyrimidin-4-ylamino)ethyl)-1H-isochromen-1-one] |  | 10 to 1000 | 10 to 1000 |
| CC(c1oc(=O)c2ccccc2c1-c1ccccc1)n1nc(-c2cncc(CO)c2)c2c(N)ncnc21 (stereo not drawn) [Example 85, 3-(1-(4-amino-3-(5-(hydroxymethyl)pyridin-3-yl)-1H-pyrazolo[3,4-d]pyrimidin-1-yl)ethyl)-4-phenyl-1H-isochromen-1-one] |  | 10 to 1000 | 10 to 1000 |
| CC(c1oc(=O)c2ccccc2c1-c1ccccc1)n1nc(-c2ccc(CO)nc2)c2c(N)ncnc21 (stereo not drawn) [Example 86, 3-(1-(4-amino-3-(6-(hydroxymethyl)pyridin-3-yl)-1H-pyrazolo[3,4-d]pyrimidin-1-yl)ethyl)-4-phenyl-1H-isochromen-1-one] |  | < 10 | 10 to 1000 |
| CC(c1oc(=O)c2ccccc2c1-c1ccccc1)n1nc(-c2ccnc(N)n2)c2c(N)ncnc21 (stereo not drawn) [Example 89, 3-(1-(4-amino-3-(2-aminopyrimidin-4-yl)-1H-pyrazolo[3,4-d]pyrimidin-1-yl)ethyl)-4-phenyl-1H-isochromen-1-one hydrochloride] |  | > 1000 | 10 to 1000 |
| CC(C)Oc1ccc(-c2nn(C(C)c3oc(=O)c4ccccc4c3-c3ccccc3)c3ncnc(N)c23)cc1F (stereo not drawn) [Example 93, 3-(1-(4-amino-3-(3-fluoro-4-isopropoxyphenyl)-1H-pyrazolo[3,4-d]pyrimidin-1-yl)ethyl)-4-phenyl-1H-isochromen-1-one] |  | 10 to 1000 | 10 to 1000 |
| CC(c1oc(=O)c2ccccc2c1-c1ccccc1)n1nc(-c2cncc(F)c2)c2c(N)ncnc21 (stereo not drawn) [Example 94, 3-(1-(4-amino-3-(5-fluoropyridin-3-yl)-1H-pyrazolo[3,4-d]pyrimidin-1-yl)ethyl)-4-phenyl-1H-isochromen-1-one] |  | 10 to 1000 | 10 to 1000 |
| CC(c1oc(=O)c2ccccc2c1-c1ccccc1)n1nc(-c2ccc(S(C)(=O)=O)nc2)c2c(N)ncnc21 (stereo not drawn) [Example 97, 3-(1-(4-amino-3-(6-(methylsulfonyl)pyridin-3-yl)-1H-pyrazolo[3,4-d]pyrimidin-1-yl)ethyl)-4-phenyl-1H-isochromen-1-one] |  | < 10 | > 1000 |
| CC(Nc1ncnc2ccsc12)c1oc(=O)c2ccccc2c1-c1ccccc1 (stereo not drawn) [Example 109, 4-phenyl-3-(1-(thieno[3,2-d]pyrimidin-4-ylamino)ethyl)-1H-isochromen-1-one] |  | 10 to 1000 | 10 to 1000 |
| CC(Nc1ncnc2[nH]cnc12)c1oc(=O)c2ccccc2c1-c1ccc(CN2CCNCC2)cc1 (stereo not drawn) [Example 126, 3-(1-(9H-purin-6-ylamino)ethyl)-4-(4-(piperazin-1-ylmethyl)phenyl)-1H-isochromen-1-one dihydrochloride] |  | 10 to 1000 | 10 to 1000 |
| CC(c1oc(=O)c2cc(Cl)ccc2c1-c1ccccc1)n1nc(-c2cc(O)cc(F)c2)c2c(N)ncnc21 (stereo not drawn) [Example 163, 3-(1-(4-amino-3-(3-fluoro-5-hydroxyphenyl)-1H-pyrazolo[3,4-d]pyrimidin-1-yl)ethyl)-7-chloro-4-phenyl-1H-isochromen-1-one] |  | 10 to 1000 | > 1000 |

— patent US9321776B2, “Isochromene derivatives as phoshoinositide 3-kinases inhibitors” (CHIESI FARMACEUTICI S.p.A., priority 2013, dated 2016)
